Laboratory results as given in patent US8088818B2, “Catechol-based derivatives for treating or preventing diabetics” (National Taiwan University, priority 2006, dated 2012).

Experiments:
Type in all cases: in vivo, rat
[1] = test system: Type 2 diabetic rats; test: Blood sugar lowering in insulin-induced type 2 diabetic rats after oral administration
Procedure: (c) Insulin-induced type 2 diabetic rats: the abdominal cavity of the male Wistar rats of 12 weeks age are injected with 0.5 IU/kg long-term insulin (MonotardR HM) three times a day for fourteen days. Then, the 10 mg/kg tolbutamide, an anti-diabetic drug of sulfonylurea class, is injected into the abdominal cavity. Phlebotomize 0.1 ml blood respectively at the preadministration and the postadministration of sixty minutes, and calculate the reduced value of the blood sugar. If the variation of the ability of lowering blood sugar is less than 10%, which is deemed as the type II (insulin resistance) diabetes rat.
(§1) (d) The administration: Dissolve the medicine equivalently in deionized water, and then administrate the mentioned solution into the normal and diabetic rats by an orally perfusion. Keep with the desired concentration of the perfusion amount by taking suitable amount of the medicine solution according to the weight of the different animal.
(§2) The rats to be experimented should undergo a starvation for 8-12 hours overnight. Next day, the rats are anesthetized with 30 mg/kg pentobarbital by injecting into the abdominal cavity. After the rats fall asleep, fix the rats on the board with the rubber band. Open the groin, find the veins, bleed 0.1 ml blood from an empty stomach, and then feed the medicine into the body of the rats by taking orally. After 90 minutes, bleed and perform a centrifugation (13,000 rpm, 5 minutes) to separate the serum and the plasma. Take the 10 μl supernatant of the serum and add 1 ml reagent of the glucose kit thereinto by gently mixing. React for 5 minutes at 37 °C, followed by detecting the value of the blood sugar by means of BST330 based on the different absorption level. […] The value of the blood sugar (mg/dL) is calculated by comparing the level of redness with contrasting the standard curve.
(§3) (The value of blood sugar at postadministration)−(The value of blood sugar at preadministration)/(The value of blood sugar at preadministration)×100%

[2] = test system: Insulin; test: Insulin concentration before and after oral administration
Text: However, it is also observed that the dominant effect for reducing the blood sugar on the type I diabetic rats, which are incapable of secreting insulin.

[3] = test system: Normal rats; test: Blood sugar lowering in normal rats after oral administration
Procedure: (a) Male Wistar rats are provided from the National Laboratory Animal Breeding and Research Center (Taipei, Taiwan), each of whose weight is about 200-250 grams, and the average age thereof is above 8 weeks. They were housed under conditions of constant temperature (25±1[…]) and controlled illumination (light time and dark time are respectively 12 hours). Food and water were available.
as §1, §2, §3
The results of the experiments are presented in the average value±the standard error (mean±SE), and the variations therebetween are evaluated according to the Student's t-test, while the variations thereamong are evaluated according to one-way ANOVA and Bonferroni's t-test, wherein P<0.05 is deemed to have apparent differences.

[4] = test system: type I diabetic rats; test: Safety evaluation: survival rate of type I diabetic rats; settings: for Survival rate (%) of rats: p.o., after seven days
Procedure: Table 13 is a safety evaluation, wherein the type I diabetic rats are respectively orally administrated with the compound 370G at the dosage of 10 mg/kg and 30 mg/kg.

## O=C(/C=C/c1ccc(O)c(O)c1)NCCc1ccccc1 [370G (45)]
[1]; type 2 diabetic rats, 0.05 mg/kg oral, 90 min
  % decrease in plasma glucose: 7.4 ± 2.6%
[1]; type 2 diabetic rats, 0.1 mg/kg oral, 90 min
  % decrease in plasma glucose: 17.2 ± 2.6 %
[1]; type 2 diabetic rats, 0.5 mg/kg oral, 90 min
  % decrease in plasma glucose: 20.1 ± 3.4 %
[1]; type 2 diabetic rats, 1.0 mg/kg oral, 90 min
  % decrease in plasma glucose: 23.3 ± 3.3 %
[1]; type II diabetic rats, 0.5 mg/kg, p.o., 90 minutes
  % decrease in plasma glucose: 20.0 ± 7.7%
[1]; type II diabetics rats, oral 0.05 to 1.0 mg/kg
  reducing the blood sugar (in words): phenomenon of reducing the blood sugar are shown
[2]; 1 mg/kg, p.o., post-treatment (30 min)
  Insulin, Post-treatment (30 min): 14.9 ± 3.4 μIU/ml
[2]; 1 mg/kg, p.o., pre-treatment (baseline)
  Insulin, Pre-treatment: 7.7 ± 1.0 μIU/ml
[2]; oral 1.0 mg/kg, in 60 minutes
  secretion of insulin (in words): increased
[3]; 0.5 mg/kg oral, Table 14
  % decrease in plasma glucose: 32.8 ± 3.4 %
[3]; 0.5 mg/kg oral, post-treatment
  Post-treatment Plasma glucose: 81.0 ± 5.7 mg/dL
[3]; 0.5 mg/kg oral, pre-treatment (baseline)
  Pre-treatment Plasma glucose: 120.5 ± 5.3 mg/dL
[3]; normal rat
  effect for reducing the blood sugar, compared among rat models: strongest effect
[3]; normal rats, 0.01 mg/kg oral, 90 min
  % decrease in plasma glucose: 11.4 ± 3.1%
[3]; normal rats, 0.05 mg/kg oral, 90 min
  % decrease in plasma glucose: 32.0 ± 1.1 %
[3]; normal rats, 0.1 mg/kg oral, 90 min
  % decrease in plasma glucose: 32.9 ± 2.3 %
[3]; normal rats, 0.5 mg/kg oral, 90 min
  % decrease in plasma glucose: 32.8 ± 3.4 %
[3]; normal rats, 1.0 mg/kg oral, 90 min
  % decrease in plasma glucose: 29.5 ± 1.7 %
[3]; normal rats, oral 0.05 to 1.0 mg/kg
  reducing the blood sugar (in words): phenomenon of reducing the blood sugar are shown
[4]; 10 mg/kg
  Survival rate (%) of rats: 100%
[4]; 30 mg/kg
  Survival rate (%) of rats: 100%
[4]; oral 10 mg/kg and 30 mg/kg, seven days
  effect on survival rate (in words): do not affect the survival rate
